Experimental data from PubChem BioAssay AID1963967 (Molecular Pharmacology Branch, DTP, NCI, 2024).
Several values for one entry are separate records, joined by “and”; a condition that tells them apart may be missing. Equal values may be shown once.

System: 855422-203-R-J1-PDC spheroids with HUVEC/MSC, viability
Experiment: Anticancer human tumor 855422-203-R-J1-PDC patient-derived bladder carcinoma cell line growth inhibition [PI3K]
Conditions: for viability, T/C: stronger effect = lower value; active = viability on the fitted dose curve at most 10% of control; inactive = the rest
In short: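 Tumor cells grown as multi-cell spheroids with HUVEC endothelial cells and MSC fibroblast-like stroma were treated with targeted agents combined with inavolisib, alpelisib, duvelisib or copanlisib. Doses fell in half-log steps from near clinical Cmax, else from 10 microM. Viability was measured.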

[1] = curve of first compound, second compound 0.00316 µM
[2] = curve of first compound, second compound 0.01 µM
[3] = curve of first compound, second compound 0.0316 µM
[4] = curve of first compound, second compound 0.1 µM
[5] = curve of first compound, second compound 0.316 µM
[6] = curve of first compound, second compound 1 µM
[7] = second compound 0.00316 µM, first compound 0.0316 µM
[8] = second compound 0.00316 µM, first compound 0.1 µM
[9] = second compound 0.01 µM, first compound 0.0316 µM
[10] = second compound 0.01 µM, first compound 0.1 µM
[11] = second compound 0.0316 µM, first compound 0.000316 µM
[12] = second compound 0.0316 µM, first compound 0.001 µM
[13] = second compound 0.0316 µM, first compound 0.00316 µM
[14] = second compound 0.0316 µM, first compound 0.01 µM
[15] = second compound 0.0316 µM, first compound 0.0316 µM
[16] = second compound 0.0316 µM, first compound 0.1 µM
[17] = second compound 0.1 µM, first compound 0.000316 µM
[18] = second compound 0.1 µM, first compound 0.001 µM
[19] = second compound 0.1 µM, first compound 0.00316 µM
[20] = second compound 0.1 µM, first compound 0.01 µM
[21] = second compound 0.1 µM, first compound 0.0316 µM
[22] = second compound 0.1 µM, first compound 0.1 µM
[23] = second compound 0.316 µM, first compound 0.000316 µM
[24] = second compound 0.316 µM, first compound 0.001 µM
[25] = second compound 0.316 µM, first compound 0.00316 µM
[26] = second compound 0.316 µM, first compound 0.01 µM
[27] = second compound 0.316 µM, first compound 0.0316 µM
[28] = second compound 0.316 µM, first compound 0.1 µM
[29] = second compound 1 µM, first compound 0.000316 µM
[30] = second compound 1 µM, first compound 0.001 µM
[31] = second compound 1 µM, first compound 0.00316 µM
[32] = second compound 1 µM, first compound 0.01 µM
[33] = second compound 1 µM, first compound 0.0316 µM
[34] = second compound 1 µM, first compound 0.1 µM
[35] = second compound 0.0316 µM, first compound 0.316 µM
[36] = second compound 0.0316 µM, first compound 1 µM
[37] = second compound 0.0316 µM, first compound 3.16 µM
[38] = second compound 0.0316 µM, first compound 10 µM
[39] = second compound 0.1 µM, first compound 0.316 µM
[40] = second compound 0.1 µM, first compound 1 µM
[41] = second compound 0.1 µM, first compound 3.16 µM
[42] = second compound 0.1 µM, first compound 10 µM
[43] = second compound 0.316 µM, first compound 0.316 µM
[44] = second compound 0.316 µM, first compound 1 µM
[45] = second compound 0.316 µM, first compound 3.16 µM
[46] = second compound 0.316 µM, first compound 10 µM
[47] = second compound 1 µM, first compound 0.316 µM
[48] = second compound 1 µM, first compound 1 µM
[49] = second compound 1 µM, first compound 3.16 µM
[50] = second compound 1 µM, first compound 10 µM
[51] = curve of first compound, second compound 3.16 µM
[52] = curve of first compound, second compound 10 µM
[53] = second compound 3.16 µM, first compound 0.0316 µM
[54] = second compound 3.16 µM, first compound 0.1 µM
[55] = second compound 10 µM, first compound 0.0316 µM
[56] = second compound 10 µM, first compound 0.1 µM
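Also: agents incubated with spheroids for one week before read-out.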
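For viability, T/C in this document: 100% = DMSO vehicle-treated control wells.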

Cn1ncnc1[C@H]1c2n[nH]c(=O)c3cc(F)cc(c23)N[C@@H]1c1ccc(F)cc1 + COc1c(OCCCN2CCOCC2)ccc2c3n(c(=NC(=O)c4cnc(N)nc4)nc12)CCN3
inactive: viability, T/C (second compound 0.00316 µM, first compound 0.000316 µM) 97.2% | viability, T/C (second compound 0.00316 µM, first compound 0.001 µM) 98% | viability, T/C (second compound 0.00316 µM, first compound 0.00316 µM) 98.6% | viability, T/C (second compound 0.00316 µM, first compound 0.01 µM) 90.5% | viability, T/C [7] 90.8% | viability, T/C [8] 91.7% | viability, T/C (second compound 0.01 µM, first compound 0.000316 µM) 88.8% | viability, T/C (second compound 0.01 µM, first compound 0.001 µM) 80.7% | viability, T/C (second compound 0.01 µM, first compound 0.00316 µM) 78% | viability, T/C (second compound 0.01 µM, first compound 0.01 µM) 97.2% | viability, T/C [9] 94.6% | viability, T/C [10] 92.2% | viability, T/C [11] 65.5% | viability, T/C [12] 62.2% | viability, T/C [13] 62.2% | viability, T/C [14] 52.7% | viability, T/C [15] 52.7% | viability, T/C [16] 53.1% | viability, T/C [17] 24.2% | viability, T/C [18] 25.9% | viability, T/C [19] 29.1% | viability, T/C [20] 27.5% | viability, T/C [21] 22.9% | viability, T/C [22] 24.5%
> 100 nM: IC50 [1] | IC50 [2] | IC50 [3]
active: viability, T/C [23] 9.77% | viability, T/C [24] 8.64% | viability, T/C [25] 8.11% | viability, T/C [26] 8.04% | viability, T/C [27] 7.3% | viability, T/C [28] 8.75% | viability, T/C [29] 4.95% | viability, T/C [30] 3.74% | viability, T/C [31] 3.02% | viability, T/C [32] 3.29% | viability, T/C [33] 4.31% | viability, T/C [34] 3.2%
< 0.316 nM: IC50 [4] | IC50 [5] | IC50 [6]

C[C@@H](NC(=O)c1ncnc(N)c1Cl)c1ncc(C(=O)Nc2cc(C(F)(F)F)c(Cl)cn2)s1 + CC(Nc1ccc2c(c1)OCCn1cc(N3C(=O)OCC3C(F)F)nc1-2)C(N)=O
> 10000 nM: IC50 [1] | IC50 [2] | IC50 [3] | IC50 [4]
< 31.6 nM: IC50 [5] | IC50 [6]
inactive: viability, T/C [7] 106% | viability, T/C [8] 83% | viability, T/C (second compound 0.00316 µM, first compound 0.316 µM) 122% | viability, T/C (second compound 0.00316 µM, first compound 1 µM) 83.3% | viability, T/C (second compound 0.00316 µM, first compound 3.16 µM) 116% | viability, T/C (second compound 0.00316 µM, first compound 10 µM) 109% | viability, T/C [9] 99.8% | viability, T/C [10] 86.2% | viability, T/C (second compound 0.01 µM, first compound 0.316 µM) 85.4% | viability, T/C (second compound 0.01 µM, first compound 1 µM) 84.9% | viability, T/C (second compound 0.01 µM, first compound 3.16 µM) 118% | viability, T/C (second compound 0.01 µM, first compound 10 µM) 98.4% | viability, T/C [15] 79.8% | viability, T/C [16] 85.4% | viability, T/C [35] 102% | viability, T/C [36] 83% | viability, T/C [37] 95.5% | viability, T/C [38] 69.3% | viability, T/C [21] 58.7% | viability, T/C [22] 61.5% | viability, T/C [39] 80% | viability, T/C [40] 68% | viability, T/C [41] 81.8% | viability, T/C [42] 35% | viability, T/C [27] 47.3% | viability, T/C [28] 49.1% | viability, T/C [43] 49.7% | viability, T/C [44] 54% | viability, T/C [45] 43.4% | viability, T/C [46] 23.9% | viability, T/C [33] 34.8% | viability, T/C [34] 40.4% | viability, T/C [47] 32.6% | viability, T/C [48] 33.6% | viability, T/C [49] 30.9% | viability, T/C [50] 14.1%

CC1(C)CCC(CN2CCN(c3ccc(C(=O)NS(=O)(=O)c4ccc(NCC5CCOCC5)c([N+](=O)[O-])c4)c(Oc4cnc5[nH]ccc5c4)c3)CC2)=C(c2ccc(Cl)cc2)C1
inactive: viability, T/C (compound 0.0316 µM) 107% [middle of 4 runs] | viability, T/C (compound 0.1 µM) 92.7% [middle of 4 runs] | viability, T/C (compound 0.316 µM) 118% [middle of 4 runs] | viability, T/C (compound 1 µM) 102% and 95.7% and 103% (2×)
active: viability, T/C (compound 10 µM) 2.29% [middle of 4 runs]
4.81 µM [middle of 4 runs]: IC50 (curve of compound)

CC(C)n1nc(-c2ccc3oc(N)nc3c2)c2c(N)ncnc21 + CC(Nc1ncnc2nc[nH]c12)c1cc2cccc(Cl)c2c(=O)n1-c1ccccc1
38.7 nM: IC50 [6]
17.3 nM: IC50 [52]
50.2 nM: IC50 [4]
33.4 nM: IC50 [51]
inactive: viability, T/C [11] 111% | viability, T/C [12] 97.1% | viability, T/C [13] 121% | viability, T/C [14] 98.6% | viability, T/C [15] 74.3% | viability, T/C [16] 15.9% | viability, T/C [17] 110% | viability, T/C [18] 108% | viability, T/C [19] 107% | viability, T/C [20] 98.1% | viability, T/C [21] 74% | viability, T/C [22] 14.4% | viability, T/C [23] 100% | viability, T/C [24] 106% | viability, T/C [25] 102% | viability, T/C [26] 99.3% | viability, T/C [27] 69.1% | viability, T/C [28] 12.1% | viability, T/C [29] 110% | viability, T/C [30] 91.2% | viability, T/C [31] 100% | viability, T/C [32] 96.9% | viability, T/C [33] 57.6% | viability, T/C [34] 14.1% | viability, T/C (second compound 3.16 µM, first compound 0.000316 µM) 95% | viability, T/C (second compound 3.16 µM, first compound 0.001 µM) 91% | viability, T/C (second compound 3.16 µM, first compound 0.00316 µM) 93.9% | viability, T/C (second compound 3.16 µM, first compound 0.01 µM) 78.7% | viability, T/C [53] 52.2% | viability, T/C [54] 12.9% | viability, T/C (second compound 10 µM, first compound 0.000316 µM) 81.5% | viability, T/C (second compound 10 µM, first compound 0.001 µM) 81% | viability, T/C (second compound 10 µM, first compound 0.00316 µM) 80.3% | viability, T/C (second compound 10 µM, first compound 0.01 µM) 59% | viability, T/C [55] 38.2% | viability, T/C [56] 13.6%
50.8 nM: IC50 [3]
46.5 nM: IC50 [5]

Cn1nccc1Nc1nccc(-c2ccn(C(CO)c3ccc(Cl)c(F)c3)c(=O)c2)n1 (centres undefined) + CC(Nc1ncnc2nc[nH]c12)c1cc2cccc(Cl)c2c(=O)n1-c1ccccc1
8440 nM: IC50 [5]
4010 nM: IC50 [52]
9940 nM: IC50 [4]
inactive: viability, T/C [15] 113% | viability, T/C [16] 94.6% | viability, T/C [35] 116% | viability, T/C [36] 98.2% | viability, T/C [37] 91% | viability, T/C [38] 44.3% | viability, T/C [21] 107% | viability, T/C [22] 98.9% | viability, T/C [39] 109% | viability, T/C [40] 101% | viability, T/C [41] 92.7% | viability, T/C [42] 49.5% | viability, T/C [27] 111% | viability, T/C [28] 98.7% | viability, T/C [43] 105% | viability, T/C [44] 106% | viability, T/C [45] 90% | viability, T/C [46] 43.5% | viability, T/C [33] 107% | viability, T/C [34] 112% | viability, T/C [47] 107% | viability, T/C [48] 103% | viability, T/C [49] 88.1% | viability, T/C [50] 45.7% | viability, T/C [53] 100% | viability, T/C [54] 107% | viability, T/C (second compound 3.16 µM, first compound 0.316 µM) 107% | viability, T/C (second compound 3.16 µM, first compound 1 µM) 103% | viability, T/C (second compound 3.16 µM, first compound 3.16 µM) 84.4% | viability, T/C (second compound 3.16 µM, first compound 10 µM) 38.2% | viability, T/C [55] 88.5% | viability, T/C [56] 81.3% | viability, T/C (second compound 10 µM, first compound 0.316 µM) 87.4% | viability, T/C (second compound 10 µM, first compound 1 µM) 80% | viability, T/C (second compound 10 µM, first compound 3.16 µM) 56.5% | viability, T/C (second compound 10 µM, first compound 10 µM) 25.1%
9000 nM: IC50 [6]
7460 nM: IC50 [51]
8700 nM: IC50 [3]
